Results reported in patent publication US7456170B2, “Triazolobenzodiazepines and their use as vasopressin antagonists” (Pfizer Inc., priority 2004, dated 2008).
Where two headings read alike, the source gives them in different places.

Molecular target: human V1A receptor (Homo sapiens, UniProt P37288)
Assay: V1A filter binding assay ([3H]-AVP binding to CHO-hV1A membranes)
Description: 1.0 V1A Filter Binding Assay
Receptor binding assays were performed on cellular membranes prepared from CHO cells stably expressing the human V1A receptor, (CHO-hV1A). The CHO-hV1A cell line was kindly provided under a licensing agreement by Marc Thibonnier, Dept. of Medicine, Case Western Reserve University School of Medicine, Cleveland, Ohio, CHO-hV1A cells were routinely maintained at 37° C. in humidified atmosphere with 5% CO2 in DMEM/Hams F12 nutrient mix supplemented with 10% fetal bovine serum, 2 mM L-glutamine, 15 mM HEPES and 400 μg/ml G418. For bulk production of cell pellets, adherent CHO-hV1A cells were grown to confluency of 90-100% in 850 cm^2 roller bottles containing a medium of DMEM/Hams F12 Nutrient Mix supplemented with 10% fetal bovine serum, 2 mM L-gitidtamine and 15 mM HEPES. Confluent CHO-hV1A cells were washed with phosphate-buffered saline (PBS), harvested into ice cold PBS and centrifuged at 1,000 rpm. Cell pellets were stored at −80° C. until use. […] Protein concentration was determined using Bradford reagent and BSA as a standard.
Protein linearity followed by saturation binding studies were performed on each new batch of membrane. […] Saturation binding studies were then performed using various concentrations of [^3H]-arginine vasopressin, [^3]-AVP (0.05 nM-100 nM) and the Kd and Bmax determined.
Compounds were tested for their effects on [^3H]-AVP binding to CHO-hV1A membranes, (^3H-AVP; specific activity 65.5 Ci/mmol: NEN Life Sciences). […] The plates were sealed and counted on a TopCount Microplate Scintillation Counter (Packard Instruments). Non-specific binding (NSB) was determined using 1 μM unlabelled d(CH2)5Tyr(Me)AVP ([β-mercapto-β,β-cyclopentamethylenepropionyl,0-Me-Tyr^2,Arg^8]-vasopressin) (βMCPVP), (Sigma). The radioligand binding data was analysed using a four parameter logistic equation with the min forced to 0%. […] Specific binding was calculated by subtracting the mean NSB cpm from the mean Total cpm. For test compounds the amount of ligand bound to the receptor was expressed as % bound=(sample cpm−mean NSB cpm)/specific binding cpm×100. […]

[1] = [3H]-AVP binding to CHO-hV1A membranes, screen 1.0, read-out: Ki

Chain of human V1A receptor (P37288 whole entry): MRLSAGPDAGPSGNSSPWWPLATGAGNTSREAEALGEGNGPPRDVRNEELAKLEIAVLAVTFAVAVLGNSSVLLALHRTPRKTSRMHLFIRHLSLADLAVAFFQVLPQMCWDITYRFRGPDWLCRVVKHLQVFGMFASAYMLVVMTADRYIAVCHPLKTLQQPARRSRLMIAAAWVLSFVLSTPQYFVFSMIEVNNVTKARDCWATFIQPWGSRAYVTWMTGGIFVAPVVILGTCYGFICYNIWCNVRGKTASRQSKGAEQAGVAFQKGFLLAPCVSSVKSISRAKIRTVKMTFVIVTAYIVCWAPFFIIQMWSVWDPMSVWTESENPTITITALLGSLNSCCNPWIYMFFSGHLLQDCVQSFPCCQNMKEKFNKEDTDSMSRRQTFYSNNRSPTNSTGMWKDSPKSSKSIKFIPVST

| Compound | Ki [1] [nM] | Ki [nM] |
| --- | --- | --- |
| CN(C)S(=O)(=O)N1Cc2cc(Cl)ccc2-n2c(nnc2N2CCC(c3ccccc3)CC2)C1 [Example 8, 8-Chloro-N,N-dimethyl-1-(4-phenylpiperidin-1-yl)-4H-[1,2,4]triazolo[4,3-a][1,4]benzodiazepine-5(6H)-sulphonamide] | 0.36 | – |
| CS(=O)(=O)N1Cc2cc(Cl)ccc2-n2c(nnc2N2CCC(c3ccccc3)CC2)C1 [Example 6, 8-Chloro-5-(methylsulfonyl)-1-(4-phenylpiperidin-1-yl)-5,6-dihydro-4H-[1,2,4]triazolo[4,3-a][1,4]benzodiazepine] | 0.17 | – |
| CS(=O)(=O)N1Cc2cc(Cl)ccc2-n2c(nnc2N2CCC(c3ccccn3)CC2)C1 [Example 3, 8-Chloro-5-(methylsulfonyl)-1-(4-pyridin-2-ylpiperidin-1-yl)-5,6-dihydro-4H-[1,2,4]triazolo[4,3-a][1,4]benzodiazepine] | – | 0.62 |
